In patent US4644085A, “Rooperol and its derivates” (Rooperol (NA) NV, priority 1985, dated 1987):
≈ marks a conversion by molar mass, not a printed value.

What was measured:
cancer = details: reported in EPO Patent Application No. 83103765.0; cited from earlier work
MOUSE SARCOMA M(52)B = assay: Inhibition of cell growth: mouse sarcoma M(52)B; assay type: cell-based; details: 96 h, media, usually four days, read-out: MINIMUM INHIBITORY CONCENTRATIONS (RANGE) WHICH PRODUCE APPROXIMATELY 50% CELL GROWTH REDUCTION
Protocol: (§1) The cell cultures were grown under standard conditions at 37° C. in Eagle's Minimal Essential Medium (M.E.M., Gibco), with glutamine and non-essential amino acids, supplemented with 10% foetal calf serum (State Vaccine Institute, Cape Town). Cells for subcultures were obtained from 90-100% confluent cell cultures by trypsinisation with Ca^++ Mg^++ --free EDTA-Dulbecco Buffer, containing 0.25% trypsin. Trypsin was inactivated by placing the harvested cell suspension into M.E.M. containing 10% foetal calf serum. The cell suspensions were then suitably diluted to the final volume, depending on the number of cells obtained and the growth profile of the cell type. The diluted cell suspensions were then dispensed at the rate of 1.0 ml into prepared cell culture flasks containing 8.9 ml culture media. These cultures were incubated for 24 hours and the media changed before adding the test compounds.
(§2) The test compounds were dissolved in dimethylsulphoxide (Merck) and added at the rate of 0.1 ml to the media in a dilution to give the desired end concentration.
(§3) In each series of experiments, control cultures were treated with equivalent amounts of solvent without the test compound. The cultures were examined daily usually for a period of four days and cell growth and other cytopathic effects were records. Abnormal cell patterns and sizes were also determined during counting.
(i) M (52) B Mouse Sarcoma

MOUSE MELANOMA B16-BL6 = assay: Inhibition of cell growth: mouse melanoma B16-BL6; assay type: cell-based; details: 96 h, media, usually four days, read-out: MINIMUM INHIBITORY CONCENTRATIONS (RANGE) WHICH PRODUCE APPROXIMATELY 50% CELL GROWTH REDUCTION
Protocol: as §1, §2, §3
(ii) Mel B16 BL06 Mouse Melanoma

HUMAN […] HOC = assay: Inhibition of cell growth: human oesophagal carcinoma HOC; assay type: cell-based; details: 96 h, read-out: MINIMUM INHIBITORY CONCENTRATIONS (RANGE) WHICH PRODUCE APPROXIMATELY 50% CELL GROWTH REDUCTION
Protocol: as §1, §2, §3
(iii) HOC Human Oesophagal Carcinoma

[1] = tested on: HUMAN CERVICAL CANCER HeLa ATCC No. CCL2; assay: Inhibition of cell growth: human cervical cancer HeLa; assay type: cell-based; details: 96 h, media, usually four days, read-out: MINIMUM INHIBITORY CONCENTRATIONS (RANGE) WHICH PRODUCE APPROXIMATELY 50% CELL GROWTH REDUCTION
Protocol: as §1, §2, §3
(iv) HeLa Human Cervical Cancer

P27-HUMAN MESOTHELIOMA = assay: Inhibition of cell growth: P27 human mesothelioma; assay type: cell-based; details: 96 h, media, usually four days, read-out: MINIMUM INHIBITORY CONCENTRATIONS (RANGE) WHICH PRODUCE APPROXIMATELY 50% CELL GROWTH REDUCTION
Protocol: as §1, §2, §3
(v) P27 Human Mesothelioma Cells

[2] = tested on: "LOOT'S" CELLS HUMAN ADENOCARCINOMA; assay: Inhibition of cell growth: "Loot's" cells human adenocarcinoma; assay type: cell-based; details: 96 h, media, usually four days, read-out: MINIMUM INHIBITORY CONCENTRATIONS (RANGE) WHICH PRODUCE APPROXIMATELY 50% CELL GROWTH REDUCTION
Protocol: as §1, §2, §3
(vi) "Loots" cells Human Derived Adenocarcinoma

CHANG CO[…] No. CCL20.2 = assay: Inhibition of cell growth: Chang conjunctival; assay type: cell-based; details: 96 h, read-out: MINIMUM INHIBITORY CONCENTRATIONS (RANGE) WHICH PRODUCE APPROXIMATELY 50% CELL GROWTH REDUCTION
Protocol: as §1, §2, §3
(vii) Chang Chang Conjunctival cells

Acute toxicity in mice = details: mouse, in vivo, po, P.O., single dose in vegetable oil, 7 days observation, read-out: MINIMUM TOLERATED SINGLE DOSE
Protocol: (§4) Some compounds were subjected to preliminary acute toxicity tests in mice and rats. Solutions or suspensions of the selected compounds were prepared in vegetable oil. The volumes administered were kept constant at 10.0 ml per kg. In each case equal numbers of male and female animals were treated with a single dose. All animals were observed over 7 days for signs of toxic and/or pharmacodynamic effects. Necropsies were performed on all surviving animals.

Acute toxicity in rats = details: rat, in vivo, po, P.O., single dose in vegetable oil, 7 days observation, read-out: MINIMUM TOLERATED SINGLE DOSE
Protocol: as §4

OC[C@H]1O[C@@H](Oc2ccc(C#CC/C=C/c3ccc(O[C@@H]4O[C@H](CO)[C@@H](O)[C@H](O)[C@H]4O)c(O)c3)cc2O)[C@H](O)[C@@H](O)[C@@H]1O [Hypoxoside, (E)-1,5-bis(3',4'-dihydroxyphenyl)pent-4-en-1-yne 4',4'-di-B-D-glucopyranoside]
anticancer activity (cancer): has anticancer activity

Oc1ccc(C#CC/C=C/c2ccc(O)c(O)c2)cc1O [Product 1, 3',3',4',4',-tetrahydroxyrooperol]
IC50 (MOUSE SARCOMA M(52)B): 12.5 to 25 µg/mL (≈ 44.3 to 88.6 µM)
IC50 (MOUSE MELANOMA B16-BL6): 10 to 25 µg/mL (≈ 35.4 to 88.6 µM)
IC50 (HUMAN […] HOC): 25 to 50 µg/mL (≈ 88.6 to 177 µM)
IC50 [1]: 20 to 40 µg/mL (≈ 70.8 to 142 µM)
IC50 (P27-HUMAN MESOTHELIOMA): 10 to 25 µg/mL (≈ 35.4 to 88.6 µM)
IC50 [2]: 12.5 to 25 µg/mL (≈ 44.3 to 88.6 µM)
IC50 (CHANG CO[…] No. CCL20.2): 20 to 25 µg/mL (≈ 70.8 to 88.6 µM)

C=CC(=O)C#Cc1ccccc1 [Product 26]
IC50 [1]: 20 to 40 µg/mL (≈ 128 to 256 µM)
IC50 (CHANG CO[…] No. CCL20.2): 2.5 to 10 µg/mL (≈ 16 to 64 µM)

Brc1ccc(C#CC/C=C/c2ccccc2)cc1 [Product 10]
IC50 [1]: 25 to 50 µg/mL (≈ 84.1 to 168 µM)

C/C=C/C(O)C#CCOC1CCCCO1 (centres unmarked) [Product 21]
IC50 [1]: 25 to 50 µg/mL (≈ 119 to 238 µM)

COc1ccc(C#CC/C=C/c2ccc(OC)cc2)cc1 [Product 5]
IC50 (HUMAN […] HOC): ≥ 25 µg/mL

C=CCC#CCOC1CCCCO1 (centres unmarked) [Product 13]
IC50 [1]: 50 to 100 µg/mL (≈ 277 to 555 µM)

OC(C#Cc1ccccc1)C=C(Cl)c1ccccc1 (centres unmarked) [Product 19]
IC50 [1]: 20 to 40 µg/mL (≈ 74.4 to 149 µM)
MTD at 168 h (Acute toxicity in mice): 250 mg/kg

COc1ccc(C#CC/C=C/c2ccccc2)cc1OC [Product 9]
IC50 [1]: 60 to 100 µg/mL (≈ 216 to 359 µM)

CCOC(=O)C(=Cc1ccccc1)CC#Cc1ccccc1 [Product 23]
IC50 (MOUSE SARCOMA M(52)B): 75 to 100 µg/mL (≈ 258 to 344 µM)
IC50 (HUMAN […] HOC): 20 to 50 µg/mL (≈ 68.9 to 172 µM)
IC50 [1]: 60 to 100 µg/mL (≈ 207 to 344 µM)
IC50 [2]: 25 to 50 µg/mL (≈ 86.1 to 172 µM)
IC50 (CHANG CO[…] No. CCL20.2): 25 to 75 µg/mL (≈ 86.1 to 258 µM)
MTD at 168 h (Acute toxicity in mice): 750 mg/kg

OCC#CC/C=C/c1ccccc1 [Product 31]
IC50 [1]: 25 to 50 µg/mL (≈ 145 to 290 µM)

C=CCC#Cc1ccccc1 [Product 2]
IC50 (HUMAN […] HOC): 50 to 100 µg/mL (≈ 352 to 703 µM)
IC50 [1]: 50 to 75 µg/mL (≈ 352 to 527 µM)
MTD at 168 h (Acute toxicity in mice): ≥ 1000 mg/kg
MTD at 168 h (Acute toxicity in rats): 500 mg/kg

COc1ccc(C#CC(O)/C=C/c2ccco2)cc1OC (centres unmarked) [Product 15]
IC50 [1]: 25 to 50 µg/mL (≈ 87.9 to 176 µM)

OC(C#Cc1ccccc1)/C=C/c1ccco1 (centres unmarked) [Product 17]
IC50 [1]: 20 to 25 µg/mL (≈ 89.2 to 111 µM)
IC50 (P27-HUMAN MESOTHELIOMA): 20 to 50 µg/mL (≈ 89.2 to 223 µM)
MTD at 168 h (Acute toxicity in mice): 500 mg/kg
MTD at 168 h (Acute toxicity in rats): 500 mg/kg

O=C(C#Cc1ccccc1)/C=C/c1ccccc1 [Product 25]
IC50 (MOUSE MELANOMA B16-BL6): 12.5 to 25 µg/mL (≈ 53.8 to 108 µM)
IC50 [1]: 5 to 10 µg/mL (≈ 21.5 to 43.1 µM)
IC50 (CHANG CO[…] No. CCL20.2): 2.5 to 10 µg/mL (≈ 10.8 to 43.1 µM)

OC(C#Cc1ccccc1)/C=C/c1ccccc1 (centres unmarked) [Product 16]
IC50 (MOUSE SARCOMA M(52)B): 20 to 40 µg/mL (≈ 85.4 to 171 µM)
IC50 (MOUSE MELANOMA B16-BL6): 20 to 50 µg/mL (≈ 85.4 to 213 µM)
IC50 [1]: 25 to 50 µg/mL (≈ 107 to 213 µM)
IC50 (P27-HUMAN MESOTHELIOMA): 25 to 50 µg/mL (≈ 107 to 213 µM)
IC50 [2]: 12.5 to 25 µg/mL (≈ 53.4 to 107 µM)
MTD at 168 h (Acute toxicity in mice): 500 mg/kg
MTD at 168 h (Acute toxicity in rats): 500 mg/kg

C(#Cc1ccccc1)C/C=C/c1ccccc1 [Product 3]
IC50 (MOUSE SARCOMA M(52)B): 50 to 75 µg/mL (≈ 229 to 344 µM)
IC50 (HUMAN […] HOC): 25 to 50 µg/mL (≈ 115 to 229 µM)
IC50 [1]: 40 to 60 µg/mL (≈ 183 to 275 µM)
IC50 (P27-HUMAN MESOTHELIOMA): 25 to 50 µg/mL (≈ 115 to 229 µM)
MTD at 168 h (Acute toxicity in mice): 500 mg/kg
MTD at 168 h (Acute toxicity in rats): 1500 mg/kg

OC(CCl)CC#Cc1ccccc1 (centres unmarked) [Product 11]
IC50 [1]: 25 to 50 µg/mL (≈ 128 to 257 µM)
MTD at 168 h (Acute toxicity in mice): ≥ 1000 mg/kg

C(#Cc1ccccc1)CC1CO1 (centres unmarked) [Product 24]
IC50 [1]: 25 to 50 µg/mL (≈ 158 to 316 µM)

C/C=C/C(O)C#CCO (centres unmarked) [Product 29]
IC50 [1]: 50 µg/mL (≈ 396 µM)

COc1ccc(C#CC/C=C/c2ccc(OC)c(OC)c2)cc1OC [Product 8]
IC50 (MOUSE SARCOMA M(52)B): 60 to 80 µg/mL (≈ 177 to 236 µM)
IC50 [1]: 60 to 100 µg/mL (≈ 177 to 296 µM)
IC50 (P27-HUMAN MESOTHELIOMA): 40 to 60 µg/mL (≈ 118 to 177 µM)

C=CCC#CCO [Product 30]
IC50 [1]: 50 µg/mL (≈ 520 µM)

COc1ccc(C#CC/C=C/c2ccccc2)cc1 [Product 6]
IC50 (HUMAN […] HOC): 10 to 20 µg/mL (≈ 40.3 to 80.5 µM)
IC50 [1]: 60 to 100 µg/mL (≈ 242 to 403 µM)

COc1ccc(C#CC(O)/C=C/c2ccccc2)cc1OC (centres unmarked) [Product 18]
IC50 [1]: 25 to 50 µg/mL (≈ 84.9 to 170 µM)

C=CC(O)C#Cc1ccccc1 (centres unmarked) [Product 20]
IC50 [1]: 25 to 50 µg/mL (≈ 158 to 316 µM)

C(#Cc1ccc2c(c1)OCO2)C/C=C/c1ccc2c(c1)OCO2 [Product 7]
IC50 (MOUSE SARCOMA M(52)B): 60 to 80 µg/mL (≈ 196 to 261 µM)
